According to US11020371B2, “Anti-norovirus composition and utilization thereof” (YAIZU SUISANKAGAKU INDUSTRY CO., LTD., priority 2015, dated 2021):

Key:
[1] = test system: Murine norovirus strain S7; experiment: Test Example 1: antiviral activity against murine norovirus (virus inactivation, TCID50 on RAW 264.7 cells); assay type: cell-based; conditions: log(TCID50 untreated) - log(TCID50 treated); 60 min reaction; theaflavin purified product and tannic acid 1.5 mg/mL in 25% ethanol-added medium; products A and B stock solution
From the text: [Test Method] […] Murine norovirus strain S7 was obtained and used. (2) Cell A RAW 264.7 cell being a cell line derived from a murine macrophage (ATCC (American Type Culture Collection) TIB-71) was obtained and used. […] The theaflavin-containing purified extract (hereinafter referred to as “theaflavin purified product”) obtained in Production Example 2 was used as a test sample. Moreover, as a test sample for comparison, tannic acid having nonspecific protein binding ability and also reported as to effectiveness against a norovirus, and products A and B being the existing anti-virus products were used. […] The theaflavin purified product was dissolved in dimethyl sulfoxide to be 71.7 mg/mL, and the resultant material was used in the test described below. Tannic acid was dissolved in dimethyl sulfoxide to be 169.9 mg/mL, and the resultant material was used in the test described below. […] A RAW 264.7 cell was monolayer cultured in a well of a 96-well plate, and washed twice with PBS (Phosphate Buffered Saline), and 200 μL of cell maintenance medium (2% fetal bovine serum-containing Dulbecco's Modified Eagle Medium (DMEM)) was added, and the resultant material was used in the test described below. (6) Anti-Virus Test For each test sample, a concentration was adjusted as described below, and the resultant material was applied as a test solution. […]

feline calicivirus = experiment: Test Example 3: anti-virus activity against feline calicivirus No. 2 (concentration, with or without 25% ethanol; TCID50 on CRFK cells); assay type: cell-based; conditions: only 25% ethanol, no addition of theaflavin purified product; 60 min reaction
Description: A cytopathic effect (CPE) was observed and a 50% tissue culture infectious dose (TCID50) being an indicator of a virus infectivity titer was calculated by the Behrens-Karber method. Moreover, a virus test solution untreated with the test sample was prepared in the same procedure, and the cytopathic effect was also observed on a cell to which the virus test solution was inoculated to determine a 50% tissue culture infectious dose (log (TCID50 value)). A reduction value of the virus infectivity titer by the test sample was calculated according to the formula (1) described below.
Anti-virus activity of the test sample against feline calicivirus was examined in the same manner as in Test Example 2 except that “(4) Preparation of sample for anti-virus test” and “(6) Anti-virus test” were conducted as described below.
(4) Preparation of Sample for Anti-Virus Test
A theaflavin purified product was dissolved in dimethyl sulfoxide to be 0.717 mg/mL (low concentration), 7.17 mg/mL (medium concentration) and 71.7 mg/mL (high concentration), and the resultant material was used in the test described below.
Then, 5 μL of a feline calicivirus solution and 45 μL of the test solution were mixed, and reacted for 60 minutes.
To the reaction liquid, 450 μL of serum-free Eagle's MEM medium was added to stop the reaction. […]

Row | SMILES | Reduction value of virus infectivity titer Average [1] | Average reduction value of virus infectivity titer (feline calicivirus)
1 | O=C(OC[C@H]1O[C@@H](OC(=O)c2cc(O)c(O)c(OC(=O)c3cc(O)c(O)c(O)c3)c2)[C@H](OC(=O)c2cc(O)c(O)c(OC(=O)c3cc(O)c(O)c(O)c3)c2)[C@@H](OC(=O)c2cc(O)c(O)c(OC(=O)c3cc(O)c(O)c(O)c3)c2)[C@@H]1OC(=O)c1cc(O)c(O)c(OC(=O)c2cc(O)c(O)c(O)c2)c1)c1cc(O)c(O)c(OC(=O)c2cc(O)c(O)c(O)c2)c1 [Tannic acid] | 0.5 | 
2 | CCO [ethanol] |  | 0.5
